Here are results for 2 compounds from ChEMBL document CHEMBL3779887, “Robenidine Analogues as Gram-Positive Antibacterial Agents” (J Med Chem, 2016).

Converted amounts (≈) assume the structure as drawn. The source made the active and inactive calls.

In series [1] the test system is Staphylococcus aureus. In words: Antibacterial activity against methicillin-resistant Staphylococcus aureus after 20 to 24 hrs. Type of series: functional.
Series [2] concerns Enterococcus. The series can be described thus: Antibacterial activity against vancomycin-resistant Enterococcus after 20 to 24 hrs. Type of series: functional.
Series [3] deals with Escherichia coli. In words: Antibacterial activity against Escherichia coli ATCC 25922 after 20 to 24 hrs. Type of series: functional.
Series [4] in a line: Lipophilicity, logD of the compound at pH 3. Type of series: physicochemical. The conditions noted are these: buffer.
The nature of series [5]: Lipophilicity, logD of the compound at pH 7.4. Type of series: physicochemical. The conditions noted are these: buffer.
Series [6] is described as follows: Solubility of the compound at pH 2. Type of series: physicochemical. As to conditions: buffer.
Series [7] is described as follows: Solubility of the compound at pH 6.5. Type of series: physicochemical. The conditions noted are these: buffer.
A short description of series [8]: Half life of compound in human liver microsomes. Type of series: ADME. A general note: Microsomes from liver hold many membrane-bound enzymes, among them those of drug oxidation.
Series [9] in a line: Half life of compound in mouse liver microsomes. Type of series: ADME.
Series [10] is described as follows: Intrinsic clearance in human liver microsomes assessed per mg of protein. The conditions noted are these: read-out: CLH. Type of series: ADME.
The nature of series [11]: Intrinsic clearance in mouse liver microsomes assessed per mg of protein. Type of series: ADME. The conditions noted are these: read-out: CLH.
Series [12] in a line: Metabolic stability in human liver microsomes assessed as compound loss after 60 mins. Type of series: ADME. The conditions noted are these: read-out: Drug degradation.
Series [13] deals with Pseudomonas aeruginosa. The series can be described thus: Antibacterial activity against Pseudomonas aeruginosa ATCC 27853 after 20 to 24 hrs. Type of series: functional.
A short description of series [14]: Selectivity ratio of MIC for methicillin-resistant Staphylococcus aureus to MIC for vancomycin-resistant Enterococcus. Type of series: functional.

A word on the MIC: it is the smallest concentration in the dilution series that meets the test's criterion for growth inhibition. High values mean weaker potency, low ones greater potency. A word on the logD: it is the decadic logarithm of the distribution of all forms, ionised or not, between an organic phase and buffer at a given pH. Lower therefore signals lower lipophilicity. In general, solubility refers to the dissolved amount per volume that the medium holds. High values mean much dissolved substance, low ones little dissolved substance. The half-life is the time needed for the level to fall by half in the phase considered. A higher half-life goes with slow decline. As to `N=C(N/N=C(\CO)c1ccc(Cl)cc1)N/N=C(\CO)c1ccc(Cl)cc1`, the minimum inhibitory concentration (MIC) in series [1] was 20.3 µM (≈ 8 µg/mL); in [2] it was 15.2 µM (≈ 5.99 µg/mL). In addition, the result in series [3] was inactive. Further, the pH-dependent lipophilicity (logD) in series [4] was 3.2; in series [5], 4. For the same compound, the solubility is 25 µg/mL (≈ 63.4 µM) in series [6] and less than 1.6 µg/mL in series [7]. In addition, the half-life in series [8] is more than 4.12 h; in series [9], 2.18 h. In addition, the results for the microsomal CLint in series [10] and in [11] were less than 7 µL/min/mg and 13 µL/min/mg, respectively. Further, in series [12], the metabolised at 1 h was less than 15%.
For `N=C(N/N=C/c1cccc(Br)c1)N/N=C/c1cccc(Br)c1`, the MIC in series [1] is more than 400 µM; in [2], 15.4 µM (≈ 6.52 µg/mL); in series [3], more than 400 µM; in series [13], more than 400 µM. Besides, the Selectivity ratio in series [14] turned out to be 10.
